Measured values as given in patent US12390472B2 (SUZHOU SINOVENT PHARMACEUTICALS CO., LTD., priority 2018, dated 2025).
Read-outs that look alike come from different tables or passages of the source.

What was measured:
EZH2 (Y641N) = EZH2 (Y641N) (Homo sapiens (Human), UniProt Q15910, Y641N); test: Test on EZH2 (Y641N) inhibitory activity; assay type: biochemical
Procedure: (§1) Compounds at different concentrations were dissolved in 100% DMSO and transferred to test plates, and the final concentration of DMSO was 1%. Enzyme solution and substrate SAM solution were prepared with 1-fold reaction buffer (optimized Tris buffer). 5 uL of enzyme solution was added to the test plate and wells only added with 5 uL of reaction buffer were used as negative control wells. After incubation at room temperature for 15 min, the plate was added with 5 uL of substrate solution per well to initiate the reaction, and then incubated at room temperature for 60 min. 5 uL of receptor solution was added and the plate was incubated away from light at room temperature for 60 min. 10 uL of donor solution was added and the plate was incubated away from light at room temperature for 30 min. The endpoint values were read on the Envision and the IC50 was calculated.
(§2) Data were fitted by GraphPad Prism 5 software and inhibition rate was calculated according to equation (1) Inh %=(Max−Signal)/(Max−Min)×100 (1)
(§3) IC50 was calculated using equation (2) Y=Bottom+(Top−Bottom)/(1+10^((Log IC50−X)×Hill Slope))
(§4) Y: inhibition rate; X: concentration of the compound

EZH2 (Y641F) = EZH2 (Y641F) (Homo sapiens (Human), UniProt Q15910, Y641F); test: Test on EZH2 (Y641F) inhibitory activity; assay type: biochemical
Procedure: as §1, §2, §3, §4

EZH2 (wt) = EZH2 (wt) (Homo sapiens (Human), UniProt Q15910); test: Test on EZH2 (wt) inhibitory activity ([3H]-SAM Flashplate); assay type: biochemical
Procedure: Protocols Compounds at different concentrations were dissolved in 100% DMSO and transferred to test plates, and the final concentration of DMSO was 1%. The enzyme solution and the mixture solution of peptide and [3H]-SAM were prepared with 1-fold reaction buffer. 10 uL of enzyme solution was added to the test plate and wells only added with 10 uL of reaction buffer were used as negative control wells. After incubation at room temperature for 15 min, the plate was added with 10 uL of the mixture solution of peptide and [3H]-SAM per well to initiate the reaction which lasts for 60 min at room temperature. The pre-cooled SAM was added to 1-fold reaction buffer to prepare a stop buffer. The reaction was stopped by adding 10 uL of stop buffer per well. 25 uL of solution was transferred from the reaction plate to Flashplate and incubated at room temperature for at least 1 h. The Flashplate was washed 3 times with dH2O+0.1% Tween-20. The plate was read by Microbeta.
as §2, §3, §4

[1] = In vivo pharmacokinetic properties in mice; set-up: species or system mouse; conditions: male ICR mice; for F: intragastric 250 mg/kg vs intravenous 5 mg/kg; for CL / AUC(0-inf) / Cmax / Tmax / half-life: single intravenous 5 mg/kg and intragastric 250 mg/kg study; for AUC(0-inf) / Cmax / Tmax / half-life: mouse, plasma; for AUC(0-inf) / Cmax / Tmax: oral; for Cmax: read-out: Cmax; for Tmax: read-out: Tmax
Procedure, shortened: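 Male ICR mice, n=3 per group, dosed once at 5 mg/kg IV in 10% DMSO/90% (20% Captisol) or 250 mg/kg intragastrically in 0.5% CMC-Na/0.1% Tween 80 (pH 3-4). EDTA-K2 plasma sampled from 5 min to 24 h; compound levels measured by LC-MS/MS.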

[2] = test system: subcutaneous xenograft tumor model of human B lymphocyte Pfeiffer; test: In vivo efficacy in subcutaneous xenograft tumor model of human B lymphocyte Pfeiffer; set-up: species or system mouse; conditions: SCID Beige mice, 100 mg/kg p.o. QD 21 days, tumor volume 21 days after administration
Procedure: Human B lymphocyte strain Pfeiffer was cultured in vitro, in a monolayer way, in a RPMI-1640 medium containing 10% fetal bovine serum, 100 U/mL penicillin and 100 μg/mL streptomycin in an incubator at 37° C./5% CO2. Conventional medium refreshment and subculturing were carried out twice a week, and cells in logarithmic growth phase were collected and used for tumor inoculation after being counted.
Female SCID Beige mice, aged 6-8 weeks and weighed 18-22 g were used in the experiment. The experiment started after 7-day adaptive feed.
Each mouse was inoculated subcutaneously with 10×10^6 Pfeiffer cells in a volume of 0.2 mL in the right side of the neck. The cells were suspended with PBS and matrigel (volume ratio 1:1). After the average tumor volume reached 130 mm^3, the mice were divided into groups with 8 mice per group for administration. The administration volume was 10 uL/g and the dose was 100 mg/kg if there's no special labeling ((p.o. administration, QD, continuous administration for 21 days).
Animal body weights were measured twice weekly and animal mortality and side effects within each group were recorded based on the number of animals in the group.
The experimental indices were to investigate whether tumor growth was inhibited or delayed or the tumor was cured. Tumor diameters were measured twice weekly using a vernier caliper. The tumor volume was calculated according to the following formula: V=0.5 a×b^2, where a and b represent the long diameter and short diameter of the tumor, respectively. The tumor growth inhibitions (TGIs) of the compounds were evaluated by T/C (%). The percentage value of T/C (%) is an index for reflecting the tumor growth inhibition, where T and C represent the average tumor volume of the administration group and the control group, respectively, at a certain day.
The tumor growth inhibition rate was calculated according to the following formula: TGI (%)=(1−(Ti−T0)/(Vi−V0))×100, where Ti is the average tumor volume of a certain administration group on a certain day, T0 is the average tumor volume of the administration group at the start of administration, Vi is the average tumor volume of the vehicle control group on a certain day (same day as Ti) and V0 is the average tumor volume of the vehicle control group at the start of administration.
Relative tumor volumes at each time point for each group were statistically analyzed and differences among groups were assessed based on the data. The statistical method used for testing was one-way ANOVA.

WSU-DLCL2 cells = test: Experiment on WSU-DLCL2 cell proliferation (Calcein-AM); assay type: cell-based; conditions: Homo sapiens
Procedure: WSU-DLCL2 cells were plated in a 96-well plate and 100 uL of cells (a density of 1×10^5 cells/mL) and 50 uL of compound stock at 3-fold concentration was added to each well, and the final volume was 150 uL/well. After 6 days of culturing, on day 7, the cells in the well plate were mixed well by pipetting, and 50 uL of the cell suspension was pipetted to be tested for cell viability using Calcein-AM. 50 uL of the cell suspension was added to a 96-well plate coated by poly-D-Lysine, and then 50 uL of HBSS containing 2 uM Calcein-AM was added to make the final concentration of Calcein-AM 1 uM. After incubation for 10 min at room temperature, the cells were rapidly centrifuged to be deposited on the bottom of the plate. The cells were cultured in the incubator for another 40 min and then the plate was read on Acumen.
The remaining cells were diluted and then plated in a 96-well plate, and 100 uL of cells and 50 uL of a compound at 3-fold concentration were added to each well for further culturing until day 14, and the cell viability was detected as described above. The IC50 was calculated.

Pfeiffer cells = test: Experiment on Pfeiffer cell proliferation (CellTiter-Glo); assay type: cell-based, human; conditions: Homo sapiens
Procedure: 90 uL of cells were added to each well of a 96-well plate at 12000 cells/well, and cell-free culture medium was added to blank control wells. The plate was incubated overnight in an incubator at 37° C., 5% CO2 and 100% relative humidity. The compounds were diluted from highest to lowest concentration gradient with DMSO to make stock solutions at 400-fold and 10-fold concentration. 10 μL of 10× compound working solution was added to the cell culture plate, and the total concentration of the compound was detected from 10 μM, 9 concentration points in total, and 3-fold serial dilution was performed. 10 μL of DMSO-cell culture medium mixture solution was added to the vehicle control wells and blank control wells. The final concentration of DMSO was 0.25%. The plate was put back in the incubator for another 7 days of culturing.
The cell culture plate cultured for 7 days was taken out of the incubator, and the suspended cells in the 96-well plate were mixed well by pipetting multiple times. 74 uL of fresh cell culture medium was added to a new 96-well plate, and 16 uL of cell suspension was pipetted from the 96-well plate with cells mixed well by pipetting into the new 96-well plate to bring the total volume to 90 uL. Cells in the new 96-well plate were treated with the compound. The new 96-well plate was put back in the incubator for another 7 days of culturing, and then cell viability was detected directly.
84 μL of cell suspension was taken from the cell culture plate for cell viability detection.
CellTiter-Glo buffer and substrate were thawed and balanced to room temperature. The CellTiter-Glo buffer was added to a bottle of CellTiter-Glo substrate to dissolve the substrate, thereby preparing CellTiter-Glo working solution. The bottle was subjected to slow vortex shaking to completely dissolve the substrate. The cell culture plate was taken out and balanced to room temperature for 30 min. 50 μL of CellTiter-Glo working solution was added to each well. The cell plate was wrapped with aluminum foil to keep out of light. The plate was shaken on an orbital shaker for 2 min to induce cell lysis. The plate was placed at room temperature for 10 min to stabilize the luminescence signals. The luminescence signals were detected on 2104 En Vision plate reader.
Inhibition rates of compounds at different concentrations were calculated in Excel, followed by plotting the inhibition curves and calculating relevant parameters including minimum (%), maximum (%), and absolute IC50 using GraphPad Prism software.

Sequence of EZH2 (Y641N) (Q15910 whole entry Y641N): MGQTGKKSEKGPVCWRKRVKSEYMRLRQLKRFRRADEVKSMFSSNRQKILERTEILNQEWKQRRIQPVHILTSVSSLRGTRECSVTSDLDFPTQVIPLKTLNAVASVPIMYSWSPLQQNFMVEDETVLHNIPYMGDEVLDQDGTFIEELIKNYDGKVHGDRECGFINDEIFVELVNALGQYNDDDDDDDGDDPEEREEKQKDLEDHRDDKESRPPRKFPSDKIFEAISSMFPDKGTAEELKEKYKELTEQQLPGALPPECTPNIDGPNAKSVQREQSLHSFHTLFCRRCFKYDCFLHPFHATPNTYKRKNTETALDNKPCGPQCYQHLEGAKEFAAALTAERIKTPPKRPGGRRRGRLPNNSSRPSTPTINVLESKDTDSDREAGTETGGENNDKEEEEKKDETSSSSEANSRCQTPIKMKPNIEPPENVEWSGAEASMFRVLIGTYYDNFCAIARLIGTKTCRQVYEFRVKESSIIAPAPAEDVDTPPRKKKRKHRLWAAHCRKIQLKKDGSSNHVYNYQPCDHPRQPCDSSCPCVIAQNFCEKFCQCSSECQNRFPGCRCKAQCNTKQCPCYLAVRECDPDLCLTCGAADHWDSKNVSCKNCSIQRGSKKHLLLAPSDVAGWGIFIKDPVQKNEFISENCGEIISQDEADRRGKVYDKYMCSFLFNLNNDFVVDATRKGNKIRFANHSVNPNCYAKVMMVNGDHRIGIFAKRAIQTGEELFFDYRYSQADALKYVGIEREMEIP
Sequence of EZH2 (Y641N) (O75530 whole entry partner): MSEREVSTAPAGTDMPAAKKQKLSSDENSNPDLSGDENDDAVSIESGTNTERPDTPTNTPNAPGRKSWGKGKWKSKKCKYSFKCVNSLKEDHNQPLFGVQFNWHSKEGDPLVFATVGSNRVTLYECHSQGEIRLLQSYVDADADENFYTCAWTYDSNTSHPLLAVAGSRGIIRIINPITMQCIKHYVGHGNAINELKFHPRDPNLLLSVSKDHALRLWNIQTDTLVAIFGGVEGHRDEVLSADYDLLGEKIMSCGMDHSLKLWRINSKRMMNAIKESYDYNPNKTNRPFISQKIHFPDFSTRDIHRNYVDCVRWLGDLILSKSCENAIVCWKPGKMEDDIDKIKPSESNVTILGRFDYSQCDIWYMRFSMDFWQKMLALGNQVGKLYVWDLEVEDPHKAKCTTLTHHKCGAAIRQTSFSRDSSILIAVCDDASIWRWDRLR
Sequence of EZH2 (Y641N) (Q15022 whole entry partner): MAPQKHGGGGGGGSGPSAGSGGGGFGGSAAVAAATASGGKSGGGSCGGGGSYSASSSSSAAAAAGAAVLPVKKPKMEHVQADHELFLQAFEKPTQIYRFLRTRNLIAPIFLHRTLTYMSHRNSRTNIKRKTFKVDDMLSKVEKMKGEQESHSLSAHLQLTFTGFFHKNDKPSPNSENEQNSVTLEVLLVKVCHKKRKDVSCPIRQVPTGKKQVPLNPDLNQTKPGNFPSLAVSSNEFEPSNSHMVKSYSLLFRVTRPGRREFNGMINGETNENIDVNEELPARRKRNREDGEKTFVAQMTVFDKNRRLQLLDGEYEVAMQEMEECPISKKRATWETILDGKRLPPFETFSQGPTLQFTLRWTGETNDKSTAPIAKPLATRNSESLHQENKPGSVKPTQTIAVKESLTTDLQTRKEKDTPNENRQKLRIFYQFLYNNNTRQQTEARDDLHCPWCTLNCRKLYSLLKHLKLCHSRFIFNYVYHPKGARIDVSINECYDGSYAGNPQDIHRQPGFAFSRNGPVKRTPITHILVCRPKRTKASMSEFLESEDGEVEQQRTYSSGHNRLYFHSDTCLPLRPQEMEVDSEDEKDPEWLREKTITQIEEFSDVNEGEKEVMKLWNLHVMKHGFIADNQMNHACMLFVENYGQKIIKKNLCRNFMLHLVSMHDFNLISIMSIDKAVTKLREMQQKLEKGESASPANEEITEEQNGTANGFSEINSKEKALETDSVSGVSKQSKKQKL
Sequence of EZH2 (Y641F) (Q15910 whole entry Y641F): as the sequence (Q15910 whole entry Y641N) above, with N641F counted along it
Sequence of EZH2 (Y641F) (O75530 whole entry partner): as the sequence (O75530 whole entry partner) above
Sequence of EZH2 (Y641F) (Q15022 whole entry partner): as the sequence (Q15022 whole entry partner) above
Sequence of EZH2 (wt) (Q15910 whole entry): as the sequence (Q15910 whole entry Y641N) above, with N641Y counted along it
Sequence of EZH2 (wt) (O75530 whole entry partner): as the sequence (O75530 whole entry partner) above
Sequence of EZH2 (wt) (Q15022 whole entry partner): as the sequence (Q15022 whole entry partner) above

Row | SMILES | IC50 (EZH2 (Y641N)) | IC50 (EZH2 (Y641F)) | IC50 (EZH2 (wt)) | F [1] | CL [1] | AUC(0-inf) [1] | Cmax [1] | Tmax [1] | half-life [1] | TGI [2] | IC50 (WSU-DLCL2 cells; WSUDLCL2, 168 h, WSU-DLCL2, Day 7, read-out: IC50 WSU-DLCL2 proliferation Day 7) | IC50 (WSU-DLCL2 cells; WSUDLCL2, 336 h, WSU-DLCL2, Day 14, read-out: IC50 WSU-DLCL2 proliferation Day 14) | IC50 (Pfeiffer cells; 168 h, Day 7, read-out: IC50 Pfeiffer proliferation Day 7) | IC50 (Pfeiffer cells; 336 h, Day 14, read-out: IC50 Pfeiffer proliferation Day 14)
1 | CCN(c1cc(O[C@H]2C[C@H](N3C[C@@H](C)O[C@@H](C)C3)C2)cc(C(=O)NCc2c(OC)cc(C)[nH]c2=O)c1C)C1CC2CCC(C1)O2 (stereo partly drawn) [Example 88, 3-((8-oxabicyclo[3.2.1]octan-3-yl)(ethyl)amino)-5-(trans-3-(cis-2,6-dimethylmorpholinyl)cyclobutoxy)-N-((4-methoxy-6-methyl-2-oxo-1,2-dihydropyridin-3-yl)methyl)-2-methylbenzamide] | 2 nM | 3.3 nM | 1.1 nM | 33.4% | 60.4 ± 0.15 mL/min/lg | 23 ± 4.54 µg·h/mL | 10.2 ± 1.45 µg/mL | 0.5 h | 2.26 ± 0.87 h | 32.83% | – | – | – | –
2 | CCN(c1cc(O[C@H]2C[C@H](N3CCCCC3)C2)cc(C(=O)NCc2c(OC)cc(C)[nH]c2=O)c1C)C1CCOCC1 [Example 93, 3-(ethyl(tetrahydro-2H-pyran-4-yl)amino)-N-((4-methoxy-6-methyl-2-oxo-1,2-dihydropyridin-3-yl)methyl)-2-methyl-5-(trans-3-(piperidin-1-yl)cyclobutoxy)benzamide] | < 0.51 nM | < 0.51 nM | < 0.51 nM | 23.1% | 45.17 ± 4.21 mL/min/lg | 21.5 ± 2.11 µg·h/mL | 10.7 ± 4.12 µg/mL | 0.33 ± 0.14 h | 1.3 ± 0.64 h | – | – | – | – | –
3 | CCN(c1cc(O[C@H]2C[C@H](N3C[C@@H](C)O[C@@H](C)C3)C2)cc(C(=O)NCc2c(OC)cc(C)[nH]c2=O)c1C)C1CCC(F)(F)CC1 [Example 87, 3-((4,4-difluorocyclohexyl)(ethyl)amino)-5-(trans-3-(cis-2,6-dimethylmorpholino)cyclobutoxy)-N-((4-methoxy-6-methyl-2-oxo-1,2-dihydropyridin-3-yl)methyl)-2-methylbenzamide] | 2.6 nM | 5.5 nM | 1.2 nM | 35.4% | 31.0 ± 2.82 mL/min/lg | 47.8 µg·h/mL | 10.6 ± 4.15 µg/mL | 0.83 ± 0.29 h | 5.77 ± 1.51 h | 42.84% | 40 nM | 9 nM | 20 nM | 4.3 nM
